Molecules are shown by their SMILES.

The test system of one assay is FS mutant flies. In words: Fusion of mushroom body β-lobes (anti-FasII staining), FS mutant flies. The format is in vivo, Drosophila melanogaster. Here is the method: Histological analysis was performed on relevant experimental flies, showing the fusion of MB beta lobes and the rescue of these fusions with in mGluR antagonists (FIG. 18). Brains from (0-1 day old) dfmr1 mutant adult flies were stained with anti-fasciclin II (ID4) and a rhodamine-coupled secondary antibody. The α, β, & γ lobes of the MBs are clearly labeled with this antibody and appear normal in this mutant brain (Panel A). Panels B-E show a higher magnification of the β-lobes at the midline. […] Panels C-E show mutants brains displaying a C) “mild” (arrowhead), D) “moderate” and E) “severe” level of midline crossing by the […]. […] WT rescue flies are dfmr1 mutants containing one copy of the dfmr1 genomic rescue fragment. The number of brains examined are listed below each group.
Rescue of β-lobe fusions with mGluR antagonists. Previously it has been established that the mushroom bodies are involved in learning and memory in the conditioned courtship and the odor shock classical conditioning paradigms in Drosophila (deBelle and Heisenberg, 1994; Joiner and Griffith, 1999; McBride et al, 1999; Zars et al, 2000; Paschel and Preat, 2001). […] When labeled with anti-FasII, we observed a range of β-lobe fusion defects in brains derived from 0-2 day old FS mutant flies, but not Rescue flies (FIG. 18).
Since treatment of FS mutant flies with mGluR antagonists rescued the memory defects observed in these flies, we examined the effect of these treatments on the β-lobe fusion defect to determine if the rescue of the two phenotypes was correlated. We raised FS mutant flies in food containing 8.6 mM MPEP, 400 nM LY341495 or 350 mM MTPG, then examined the morphology of the MBs in 0-2 day old adults. […] For example, mild fusion defects were only observed in 18% of FS mutant brains raised in food containing 400 nM LY341495 (FIG. 18F). No effect was observed when these drugs were fed to Rescue flies during development (not shown).
If this is true, then we would expect that the behavioral rescue obtained by treating FS mutant flies these drugs during adulthood alone would lead to a similar morphological rescue. To test this hypothesis, we treated FS mutant flies with 8.6 mM MPEP for four days starting at eclosion, and then transferred them to normal food for 24 hours before examining the morphology of their MBs. For comparison we also examined the MBs of flies left in control food for five days. […] Thus it appears that rescue of this morphological defect is not absolutely necessary for the rescue of the memory defects observed in the dfmr1 mutant flies.

The test system of a further assay is Rescue flies. In words: Short-term memory (60 mins) with mated female targets, Rescue flies. The format is in vivo, Drosophila melanogaster. As to conditions: for short-term memory, mated female target: 86 μM MPEP, 400 nM LY341495, 573 μM MPPG, 348 μM MTPG; for memory at 60 minutes post training, mated female target: 5 day old, 8.6 mM MPEP, 400 nM LY341495. Here is the method:
Effects of drug treatment on short-term memory (60 mins) in flies lacking dfmr1 activity with mated female targets. Short-term (60 min.) memory was measured in Rescue and FS flies that were either fed control food or underwent various drug treatments as described below. Short-term memory was measured by placing a trained male in a holding chamber for 60 minutes (after being trained for one hour with a previously mated female), then subsequently placing him in a testing chamber with a mated female target for a ten-minute courtship interval (C.I.). This C.I. was compared to the C.I. obtained for naïve courtship of a previously mated female, i.e., C.I. during the first 10 minutes of the training session with a previously mated female. Additionally, for reference the C.I. during the last 10 minutes of the training period was also determined. Numbers of flies are indicated above each bar for all groups. The levels of significance are indicated as follows; *=p<0.05; **=p<0.005; ***=p<0.0001.
Restoration of short-term memory with mGluR antagonists. To establish that the failure to observe memory was not due to a problem with recognizing or processing the appropriate cues from the virgin female target, we used a modified version of the conditioned courtship paradigm where the male is paired with a mated female target subsequent to training (Kane et al., 1997; Joiner and Griffith, 1997; Joiner and Griffith, 1999; Kamashev et al., 1999). Again, with pharmacologic treatment it is necessary to utilize more then one compound to confirm the specificity of the target, so in this case we used four mGluR antagonists. […] It is also important to note that the robust deficit in synaptic plasticity in FS flies, with regard to memory, is a critical extension of the previous models of Fragile X syndrome in model organisms, since this is one of the most prominent aspects of the human disorder. Furthermore, we have shown that antagonism of the mGluRs can restore synaptic plasticity in the Drosophila model of Fragile X syndrome.

The mark [1] stands for this setting: raised in food containing 8.6 mM MPEP, 400 nM LY341495 or 350 mM MTPG, 0-2 day old adults.

Turning to `CC(N)(C(=O)O)c1ccc(-c2nnn[nH]2)cc1` (racemic) [MTPG, (RS)-α-methyl-4-tetrazolylphenylglycine], in the assay on FS mutant flies (setting [1]), the β-lobe fusion defects result is “rescue of the β-lobe fusion defects”. Besides, in the assay with Rescue flies, the “short-term memory, mated female target” value was “demonstrated intact short-term memory” and the “memory at 60 minutes post training, mated female target” value (“memory at 60 minutes post training” for short) is given as “demonstrate memory at 60 minutes post training”.

For the compound `N[C@](CC1c2ccccc2Oc2ccccc21)(C(=O)O)[C@H]1C[C@@H]1C(=O)O` [LY341495, (2S)-2-amino-2-[(1S,2S)-2-carboxycycloprop-1-yl]-3-(xanth-9-yl) propionic acid], the “FS mutant brains with (mild) fusion defects” value with FS mutant flies (raised in food containing 400 nM LY341495, untreated roughly 70%) is on record as 18%. Also, the β-lobe fusion defects entry in the assay on FS mutant flies (setting [1]) is given as “rescue of the β-lobe fusion defects”. In the assay with Rescue flies, the “short-term memory, mated female target” value is “demonstrated intact short-term memory” and the “memory at 60 minutes post training” value was “demonstrate memory at 60 minutes post training”.

For `Cc1cccc(C#Cc2ccccc2)n1` [MPEP, 2-methyl-6-(phenylethynyl)pyridine], in the assay on FS mutant flies (8.6 mM MPEP for four days starting at eclosion (adulthood only)), the β-lobe fusion defects entry is given as “did not observe any rescue of the β-lobe fusion defects”. In addition, in the assay on FS mutant flies (setting [1]), the β-lobe fusion defects result is “rescue of the β-lobe fusion defects”. In addition, in the assay with Rescue flies, the “short-term memory, mated female target” value is reported as “demonstrated intact short-term memory” and the “memory at 60 minutes post training” value is recorded as “demonstrate memory at 60 minutes post training”.

Values taken from patent US20080187492A1, “Drosophila Models For Diseases Affecting Learning and Memory” (priority 2004, published 2008).
